From ChEMBL document CHEMBL4622875, “(3,3″)-Linked Biflavanones from Ouratea spectabilis and Their Effects on the Release of Proinflammatory Cytokines in THP-1 Cells” (J Nat Prod, 2020) come the findings set out here.

Activity calls are given as the source filed them. No cut-off for these calls is given here. Where only a bound is given, the exact number is not on record here.

Data set [1] can be described thus: Cytotoxicity against human THP1 cells assessed as cell viability at 10 to 90 uM incubated for 18 hrs by sulforhodamine B assay relative to control. It is filed as cell-based. The settings on record: THP-1 cells, read-out: Activity.
For data set [2], the system named is THP-1. Nature of the data set: Antiinflammatory activity in human THP1 cells assessed as reduction in LPS-induced TNF secretion at 10 to 90 uM preincubated for 3 hrs followed by LPS stimulation and measured after 18 hrs by ELISA. Type of data set: functional, cell-based. In general terms: An ELISA detects its analyte on a solid surface through an enzyme-linked reagent.

Data set [3] deals with THP-1. Nature of the data set: Antiinflammatory activity in human THP1 cells assessed as reduction in LPS-induced IL-1beta secretion at 10 to 90 uM preincubated for 3 hrs followed by LPS stimulation and measured after 18 hrs by ELISA. Type of data set: functional, cell-based.
Data set [4] relates to THP-1. Nature of the data set: Antiinflammatory activity in human THP1 cells assessed as reduction in LPS-induced CCL2 secretion preincubated for 3 hrs followed by LPS stimulation and measured after 18 hrs by ELISA. Type of data set: functional, cell-based.

The IC50 is the concentration that gives 50% inhibition. Take `COc1cc(O)c2c(c1)O[C@H](c1ccc(O)cc1)[C@@H]([C@H]1C(=O)c3c(O)cc(OC)cc3O[C@@H]1c1ccc(O)cc1)C2=O`: in data set [1], the viability at 18 h, up to 90 µM was above 90%. Moreover, the outcome in data set [2] and in data set [3] was inactive. Moreover, in data set [4], the IC50 stood at 3.1 µM.

With `O=C1c2c(O)cc(O)cc2O[C@H](c2ccc(O)cc2)[C@@H]1[C@@H]1C(=O)c2c(O)cc(O)cc2O[C@@H]1c1ccc(O)cc1` [NEOCHAMAEJASMIN A], the viability at 18 h, up to 90 µM in data set [1] was above 90%. Also, the outcome in data set [2] and in data set [3] was inactive.

On to `COc1cc(O)c2c(c1)O[C@H](c1ccc(O)cc1)[C@@H]([C@H]1C(=O)c3c(O)cc(O)cc3O[C@@H]1c1ccc(O)cc1)C2=O`, for which, in data set [1], the viability at 18 h, up to 90 µM was above 90%. The outcome in data set [2] and in data set [3] was inactive.

In the case of `COc1cc(O)c2c(c1)O[C@H](c1ccc(O)cc1)[C@H]([C@@H]1C(=O)c3c(O)cc(OC)cc3O[C@@H]1c1ccc(O)cc1)C2=O`, the viability at 18 h, up to 90 µM in data set [1] was above 90%. The result in data set [2] and in data set [3] was inactive.
